# Patent US20250320261A1, “ANTIBACTERIAL PEPTIDE” (priority 2021, published 2025)
# Read-outs that look alike come from different tables or passages of the source. Peptide text beside a SMILES is read from it. * marks the point of attachment. Heptanoyl = CCCCCCC(=O)*; Octanoyl = CCCCCCCC(=O)*; Hexanoyl = CCCCCC(=O)*; Pentanoyl = CCCCC(=O)*
# Experiments:
# E. coli (K-12 MG1655) = assay: Broth microdilution MIC/MBC; type: cell-based, Escherichia coli; settings: for antimicrobial activity against E. coli (in words): compared with peptide #6 or the parent lipopeptide
# Protocol: (§1) S. aureus (ATCC 29213, MSSA, ATCC, Manassas, VA) and E. coli (K-12 MG1655) were streaked on Luria-Bertani (LB) agar plates and incubated at 37° C. overnight. Single colonies were inoculated into 5 ml of LB broth and incubated on a shaker (400 rpm) at 37° C. overnight. The bacterial concentrations were determined by viable count and were adjusted to correlate with approximately 10^9 CFU/ml.
# (§2) The broth microdilution method was used to determine minimal inhibitory concentration (MIC) and minimal bactericidal concentration (MBC). Two-fold serial dilutions of the peptides were used, and the final concentrations ranged from 0.19-100 μM. The effect of peptide-antibiotic combinations was investigated by performing a checkerboard analysis. […] The fractional inhibitory concentration (FIC) and fractional bactericidal concentration (FBC) were calculated by the equation (MIC or MBC of peptide in combination/MIC or MBC of peptide […] alone)+(MIC or MBC of antibiotic in combination/MIC or MBC of antibiotic alone). Synergy was defined as FIC/FBC≤0.5, additive when 0.5<FIC/FBC≤1, indifferent when 1<FIC/FBC<2 and antagonistic when FIC/FBC≥2. All experiments were repeated at least three times.
# [1] = test system: S. aureus (ATCC 29213, MSSA); type: cell-based, Staphylococcus aureus; settings: for antimicrobial activity against S. aureus (in words): compared with peptide #6 or the parent lipopeptide
# Protocol: as §1, §2
# S. aureus = assay: Checkerboard analysis of peptide-antibiotic combinations; type: cell-based, Staphylococcus aureus; settings: combined with different antibiotics
# Protocol: as §2
# E. coli = assay: as above; type: cell-based, Escherichia coli; settings: combined with different antibiotics
# Protocol: as §2
# [2] = test system: HaCaT keratinocytes infected with S. aureus; assay: LDH cytotoxicity and cytokine secretion of S. aureus-infected HaCaT keratinocytes; type: cell-based, human; settings: 24 h, vs positive control
# Protocol: After 24 hours of exposure to Staphylococcus aureus (MOI=0.1), and three administrations of L-6-C5-N (2.5, 5, 10, 20 and 40 μM) at 1, 5 and 9 hours post infection. (A) Cytotoxicity, LDH levels normalized against negative control. (B) Interleukin-6. (C) Tumor Necrosis Factor-α. (D) CXC motif ligand 8 levels. (−) indicates negative control (uninfected/unstimulated cells), (+) indicates positive control (S. aureus-infected cells). Statistical analysis was done by ANOVA with Tukey's post hoc test. P-values are indicated by *=[…], ***=0.001.
# It was evaluated whether the peptide SEQ ID NO:3 having L-amino acids and an acetylation with five carbon atoms at the N-terminal portion (L-6-C5-N) could effectively reduce an inflammatory response to a bacterial infection to HaCaT keratinocytes. After 24 hours of exposure to Staphylococcus aureus (MOI=0.1), and three administrations of L-6-C5-N SEQ ID NO:3 in different concentrations (2.5, 5, 10, 20 and 40 μM) at 1, 5 and 9 hours post infection, a LDH cytotoxicity assay was performed and IL-6, TNF-α and CXCL-8 concentrations were measured. The symbol (−) indicates negative control (uninfected/unstimulated cells), (+) indicates positive control (S. aureus-infected cells).
# human erythrocytes = type: cell-based; settings: red cells of human, 1 h, 100 μM
# Protocol: FIG. 4. Hemolytic activity of SEQ ID NO 1 and SEQ ID NO 3. The hemolytic activity was determined on human erythrocytes (15% suspended in PBS) after exposure to A) SEQ ID NO: 3 with increasing length of fatty acid chains and full length PLNC8 β, B) L-enantiomers of SEQ ID NO: 3 with a fatty acid chain length of 5, 6, and 7 carbon (L-6-C5-N; L-6-C6-N; L-6-C7-N), and L-enantiomers of SEQ ID NO 1 with a fatty acid chain length of 5, 6, and 7 carbon (L-6-C5-N-Leu; L-6-C6-N-Leu; L-6-C7-N-Leu), C) D-enantiomers of SEQ ID NO: 3 with a fatty acid chain length of 5, 6, and 7 carbon (D-6-C5-N; D-6-C6-N; D-6-C7-N), and D-enantiomers of SEQ ID NO: 1 with a fatty acid chain length of 5, 6, and 7 carbon (D-6-C5-N-Leu; D-6-C6-N-Leu; D-6-C7-N-Leu). Erythrocytes were exposed to the peptides using the indicated concentrations for 1 h. […]
# The hemolytic activity of the peptides was investigated by collecting blood from healthy volunteers in heparinized vacutainers. […] The plates were incubated for 1 h at 37° C. followed by centrifugation for 5 min at 900×g and absorbance measurement of the supernatants at 540 nm. Hemolytic activity (%) was calculated by subtracting the negative control from all values and normalization against the positive control (0.5% Triton X-100), that was set to 100%. […]
Compound,MBC E. coli (E. coli (K-12 MG1655); broth microdilution) [µM],MIC E. coli (E. coli (K-12 MG1655); broth microdilution) [µM],"MBC S. aureus ([1]; ATCC 29213, 20 h) [µM]","MIC S. aureus ([1]; ATCC 29213, 20 h) [µM]",further results
Ac-LWSAYKHR-NH2 [Peptide S3],>100,>100,–,–,–
Ac-LGQKILRSARKFGKDIEKSF-NH2 [Peptide 14],>100,>100,>100,>100,–
"Ac-SVPTSVYTLGIKILWSAYKHRKTIEKSFNKGFYH-NH2 (N-terminus and C-terminus assumed) [PLNC8 β, reference compound]",–,–,–,–,MBC S. aureus ([1]; ATCC 29213): >100 µM; MIC S. aureus ([1]; ATCC 29213): >100 µM; MBC E. coli (E. coli (K-12 MG1655); K-12): >100 µM; MIC E. coli (E. coli (K-12 MG1655); K-12): >100 µM; antimicrobial activity against E. coli (in words) (E. coli (K-12 MG1655)): no activity
6-C2-N: peptide #6 (SEQ ID NO: 3) acetylated with two carbon atoms at the N-terminal (Ac-LGIKILWSAYKHRKTI-NH2) [Peptide 6-C2-N],–,–,–,–,interaction with antibiotics (FIC/FBC) against S. aureus (S. aureus): additive or synergistic; interaction with antibiotics (FIC/FBC) against E. coli (E. coli): additive or synergistic
Ac-YTLGIKILWSAYKHRK-NH2 [Peptide 4],>100,>100,>100,>100,–
Ac-LGQKILRSARKFGKTIEKSF-NH2 [Peptide 13],>100,>100,>100,>100,–
6-C5-N: SEQ ID NO:3 having L-amino acids and an acetylation with five carbon atoms at the N-terminal portion (Pentanoyl-LGIKILWSAYKHRKTI-NH2) [Peptide 6-C5-N],–,–,–,–,"antimicrobial activity against S. aureus (in words) [1]: maximum; antimicrobial activity against E. coli (in words) (E. coli (K-12 MG1655)): maximum; interaction with antibiotics (FIC/FBC) against S. aureus (S. aureus): additive or synergistic; IL-6 secretion, infected HaCaT ([2]; MOI=0.1, 2.5-40 μM at 1, 5 and 9 h post infection): significantly reduced; cell lysis (LDH) of S. aureus-infected HaCaT keratinocytes ([2]; MOI=0.1, 2.5-40 μM given at 1, 5 and 9 h post infection): significantly reduced; interaction with antibiotics (FIC/FBC) against E. coli (E. coli): additive or synergistic"
Ac-LLGIKILWSARKFGKVIEKSF-NH2 [Peptide 17],>100,>100,>100,>100,–
Ac-ILWSAYKHR-NH2 [Peptide S2],>100,>100,–,–,–
Ac-LGIKILRSARKFGKVIEKSF-NH2 [Peptide 15],>100,>100,>100,>100,–
CCCCCCCC(=O)N[C@@H](CC(C)C)C(=O)NCC(=O)N[C@H](C(=O)N[C@@H](CCCCN)C(=O)N[C@H](C(=O)N[C@@H](CC(C)C)C(=O)N[C@@H](Cc1c[nH]c2ccccc12)C(=O)N[C@@H](CO)C(=O)N[C@@H](C)C(=O)N[C@@H](Cc1ccc(O)cc1)C(=O)N[C@@H](CCCCN)C(=O)N[C@@H](Cc1c[nH]cn1)C(=O)N[C@@H](CCCNC(=N)N)C(=O)N[C@@H](CCCCN)C(=O)N[C@H](C(=O)N[C@H](C(N)=O)[C@@H](C)CC)[C@@H](C)O)[C@@H](C)CC)[C@@H](C)CC [Peptide 6-C8-N] (Octanoyl-LGIKILWSAYKHRKTI-NH2),12.5,12.5,–,–,antimicrobial activity against S. aureus (in words) [1]: did not affect the antimicrobial activity
Ac-LLGIKILWKARKFGKVIEKSF-NH2 [Peptide 18],>100,100,>100,>100,–
Ac-TLGIKILWSAYKHRKT-NH2 [Peptide 5],>100,>100,>100,>100,–
CCCCCCC(=O)N[C@@H](CC(C)C)C(=O)NCC(=O)N[C@H](C(=O)N[C@@H](CCCCN)C(=O)N[C@H](C(=O)N[C@@H](CC(C)C)C(=O)N[C@@H](Cc1c[nH]c2ccccc12)C(=O)N[C@@H](CO)C(=O)N[C@@H](C)C(=O)N[C@@H](Cc1ccc(O)cc1)C(=O)N[C@@H](CCCCN)C(=O)N[C@@H](Cc1c[nH]cn1)C(=O)N[C@@H](CCCNC(=N)N)C(=O)N[C@@H](CCCCN)C(=O)N[C@H](C(=O)N[C@H](C(N)=O)[C@@H](C)CC)[C@@H](C)O)[C@@H](C)CC)[C@@H](C)CC [Peptide 6-C7-N] (Heptanoyl-LGIKILWSAYKHRKTI-NH2),–,–,–,–,hemolytic activity (human erythrocytes): around 10%
Ac-KILWSAYKHR-NH2 [Peptide S1],>100,>100,–,–,–
"6-C6-N: L-enantiomer of SEQ ID NO: 3 with a fatty acid chain length of 6 carbon (Hexanoyl-LGIKILWSAYKHRKTI-NH2; also: C6 fatty acid chain, site not given here) [Peptide 6-C6-N]",–,–,–,–,antimicrobial activity against S. aureus (in words) [1]: maximum; antimicrobial activity against E. coli (in words) (E. coli (K-12 MG1655)): maximum
"Ac-WSAYKHR-NH2 [Peptide S4, WSAYKHR]",>100,>100,–,–,–
"Ac-WSAYKH-NH2 [Peptide S5, WSAYKH]",>100,>100,–,–,–
Ac-LGIKILWSARKFGKVIEKSF-NH2 [Peptide 16],>100,>100,>100,>100,–
Ac-LGIKILWSAYKHRKTI-NH2 [Peptide 6],50,50,–,–,MBC S. aureus ([1]; broth microdilution): 100 µM; MIC S. aureus ([1]; broth microdilution): 100 µM; antimicrobial activity against E. coli (in words) (E. coli (K-12 MG1655)): comparable to the activity of LL-37
"Ac-WSAYK-NH2 [Peptide S6, WSAYK]",>100,>100,–,–,–
